Measured values reported in ChEMBL document CHEMBL3885881, “DrugMatrix”.

Species on record: Rattus norvegicus
Test: DrugMatrix - Regimen: Daily Repeat
Format: toxicity, organism-based, Sprague-Dawley
Parameters: regimen Daily Repeat, gender Male, age 6-8 weeks
Settings: in vivo, iv, vehicle 100 % SALINE; for EOSINOPHIL / ERYTHROCYTE COUNT / HEMATOCRIT / HEMOGLOBIN / LEUKOCYTE COUNT / LYMPHOCYTE / MEAN CORPUSCULAR HEMOGLOBIN / MEAN CORPUSCULAR HEMOGLOBIN CONCENTRATION / MEAN CORPUSCULAR VOLUME / MONOCYTE / NEUTROPHIL / NUCLEATED RED BLOOD CELLS / PLATELET COUNT / ABSOLUTE BASOPHIL / ABSOLUTE EOSINOPHIL / ABSOLUTE LYMPHOCYTE / ABSOLUTE MONOCYTE / ABSOLUTE SEGMENTED NEUTROPHIL / BASOPHIL: tissue Blood; for ALANINE AMINOTRANSFERASE / ALBUMIN / ALKALINE PHOSPHATASE / ASPARTATE AMINOTRANSFERASE / BLOOD UREA NITROGEN / CARBON DIOXIDE / CHLORIDE / CHOLESTEROL / CREATINE PHOSPHOKINASE / CREATININE / GLUCOSE / LACTATE DEHYDROGENASE / LIPASE / PHOSPHORUS / POTASSIUM / SODIUM / TOTAL BILIRUBIN / TOTAL PROTEIN / URIC ACID: tissue Plasma
[1] = 0 mg/kg, 72 h, dose level Control, time 3 day
[2] = 0 mg/kg, 120 h, dose level Control, time 5 day
[3] = 20 mg/kg, 72 h, dose level Low, time 3 day
[4] = 20 mg/kg, 120 h, dose level Low, time 5 day

NCC[C@H](O)C(=O)N[C@@H]1C[C@H](N)[C@@H](O[C@H]2O[C@H](CN)[C@@H](O)[C@H](O)[C@H]2O)[C@H](O)[C@H]1O[C@H]1O[C@H](CO)[C@@H](O)[C@H](N)[C@H]1O [AMIKACIN]
EOSINOPHIL [1]: 0%
ERYTHROCYTE COUNT [1]: 5.38 x10E6/uL
HEMATOCRIT [1]: 33.67%
HEMOGLOBIN [1]: 12.88 G/DL
LEUKOCYTE COUNT [1]: 8.37 x10E3/uL
LYMPHOCYTE [1]: 91.17%
MEAN CORPUSCULAR HEMOGLOBIN [1]: 23.95 pg
MEAN CORPUSCULAR HEMOGLOBIN CONCENTRATION [1]: 38.23 G/DL
MEAN CORPUSCULAR VOLUME [1]: 62.6 fL
MONOCYTE [1]: 0.83%
NEUTROPHIL [1]: 8%
NUCLEATED RED BLOOD CELLS [1]: 0.17 /100WBC
PLATELET COUNT [1]: 865 x10E3/uL
ALANINE AMINOTRANSFERASE [1]: 51.67 u/L
ALBUMIN [1]: 3.97 G/DL
ALKALINE PHOSPHATASE [1]: 351.17 u/L
ASPARTATE AMINOTRANSFERASE [1]: 82.33 u/L
BLOOD UREA NITROGEN [1]: 15.17 mg/dL
CARBON DIOXIDE [1]: 34.5 mmol/L
CHLORIDE [1]: 100 MEQ/L
CHOLESTEROL [1]: 80.33 mg/dL
CREATINE PHOSPHOKINASE [1]: 316.5 u/L
CREATININE [1]: 0.17 mg/dL
GLUCOSE [1]: 149.17 mg/dL
LACTATE DEHYDROGENASE [1]: 105.67 u/L
LIPASE [1]: 9.5 u/L
PHOSPHORUS [1]: 10.87 mg/dL
POTASSIUM [1]: 5.47 MEQ/L
SODIUM [1]: 144.2 MEQ/L
TOTAL BILIRUBIN [1]: 0.2 mg/dL
TOTAL PROTEIN [1]: 5.83 G/DL
URIC ACID [1]: 0.83 mg/dL
ABSOLUTE BASOPHIL [2]: 0 CELLS/uL
ABSOLUTE EOSINOPHIL [2]: 0 CELLS/uL
ABSOLUTE LYMPHOCYTE [2]: 6333.5 CELLS/uL
ABSOLUTE MONOCYTE [2]: 38.83 CELLS/uL
ABSOLUTE SEGMENTED NEUTROPHIL [2]: 661 CELLS/uL
BASOPHIL [2]: 0%
EOSINOPHIL [2]: 0%
ERYTHROCYTE COUNT [2]: 5.44 x10E6/uL
HEMATOCRIT [2]: 34.17%
HEMOGLOBIN [2]: 13.22 G/DL
LEUKOCYTE COUNT [2]: 7.03 x10E3/uL
LYMPHOCYTE [2]: 90.17%
MEAN CORPUSCULAR HEMOGLOBIN [2]: 24.38 pg
MEAN CORPUSCULAR HEMOGLOBIN CONCENTRATION [2]: 38.7 G/DL
MEAN CORPUSCULAR VOLUME [2]: 62.95 fL
MONOCYTE [2]: 0.5%
NEUTROPHIL [2]: 9.33%
NUCLEATED RED BLOOD CELLS [2]: 0 /100WBC
PLATELET COUNT [2]: 924.33 x10E3/uL
ALANINE AMINOTRANSFERASE [2]: 52.5 u/L
ALBUMIN [2]: 3.97 G/DL
ALKALINE PHOSPHATASE [2]: 364.83 u/L
ASPARTATE AMINOTRANSFERASE [2]: 82.5 u/L
BLOOD UREA NITROGEN [2]: 17 mg/dL
CARBON DIOXIDE [2]: 32.33 mmol/L
CHLORIDE [2]: 99.6 MEQ/L
CHOLESTEROL [2]: 75.83 mg/dL
CREATINE PHOSPHOKINASE [2]: 419 u/L
CREATININE [2]: 0.21 mg/dL
GLUCOSE [2]: 155 mg/dL
LACTATE DEHYDROGENASE [2]: 111.5 u/L
LIPASE [2]: 11.33 u/L
PHOSPHORUS [2]: 10.32 mg/dL
POTASSIUM [2]: 5.37 MEQ/L
SODIUM [2]: 144.64 MEQ/L
TOTAL BILIRUBIN [2]: 0.18 mg/dL
TOTAL PROTEIN [2]: 5.98 G/DL
URIC ACID [2]: 0.62 mg/dL
ABSOLUTE BASOPHIL [3]: 0 CELLS/uL
ABSOLUTE EOSINOPHIL [3]: 0 CELLS/uL
ABSOLUTE LYMPHOCYTE [3]: 8480.67 CELLS/uL
ABSOLUTE MONOCYTE [3]: 225.67 CELLS/uL
ABSOLUTE SEGMENTED NEUTROPHIL [3]: 993.67 CELLS/uL
BASOPHIL [3]: 0%
EOSINOPHIL [3]: 0%
ERYTHROCYTE COUNT [3]: 5.64 x10E6/uL
HEMATOCRIT [3]: 34.43%
HEMOGLOBIN [3]: 13 G/DL
LEUKOCYTE COUNT [3]: 9.7 x10E3/uL
LYMPHOCYTE [3]: 88%
MEAN CORPUSCULAR HEMOGLOBIN [3]: 23.03 pg
MEAN CORPUSCULAR HEMOGLOBIN CONCENTRATION [3]: 37.77 G/DL
MEAN CORPUSCULAR VOLUME [3]: 61 fL
MONOCYTE [3]: 2.33%
NEUTROPHIL [3]: 9.67%
NUCLEATED RED BLOOD CELLS [3]: 0.33 /100WBC
PLATELET COUNT [3]: 903.33 x10E3/uL
ALANINE AMINOTRANSFERASE [3]: 53.67 u/L
ALBUMIN [3]: 4.13 G/DL
ALKALINE PHOSPHATASE [3]: 308.67 u/L
ASPARTATE AMINOTRANSFERASE [3]: 82.33 u/L
BLOOD UREA NITROGEN [3]: 14 mg/dL
CARBON DIOXIDE [3]: 35.67 mmol/L
CHLORIDE [3]: 99 MEQ/L
CHOLESTEROL [3]: 77.33 mg/dL
CREATINE PHOSPHOKINASE [3]: 320 u/L
CREATININE [3]: 0.17 mg/dL
GLUCOSE [3]: 145.67 mg/dL
LACTATE DEHYDROGENASE [3]: 98 u/L
LIPASE [3]: 9.33 u/L
PHOSPHORUS [3]: 11.1 mg/dL
POTASSIUM [3]: 6.07 MEQ/L
SODIUM [3]: 144.47 MEQ/L
TOTAL BILIRUBIN [3]: 0.2 mg/dL
TOTAL PROTEIN [3]: 6.03 G/DL
URIC ACID [3]: 0.9 mg/dL
ABSOLUTE BASOPHIL [4]: 0 CELLS/uL
ABSOLUTE EOSINOPHIL [4]: 0 CELLS/uL
ABSOLUTE LYMPHOCYTE [4]: 3175.67 CELLS/uL
